Test results from US20230398140A1, “OCULAR-TENSION-INCREASING AGENT CAPABLE OF BEING DEPRIVED OF DRUG ACTIVITY BY TEMPERATURE CONTROL” (UNIVERSITY OF YAMANASHI, priority 2020, published 2023).

Test system: White house rabbits
Details: rabbit, in vivo

cloudiness of eyeball immediately after administration: became cloudy
Substance: poly(2-propyl-2-oxazoline) [POx]
cloudiness of eyeball after 24 hours: deposited on the iris and lens surface with the passage of time and remained as a white sediment
